Test results as given in patent US9393251B2, “Compositions and methods for treating severe thrombocytopenia related disease” (priority 2013, dated 2016).

What was measured:
[1] = tested on: rheumatoid arthritis, systemic lupus erythematosus and Sjögren's syndrome; assay: Patients with rheumatoid arthritis, systemic lupus erythematosus and Sjögren's syndrome treated with the combination (Example 4); type: in vivo, human; settings: after Vitamin D deficiency corrected with high dose Vitamin D replacement
Experimental: Low levels of vitamin D have been implicated in a number of autoimmune disorders, such as rheumatoid arthritis, systemic lupus erythematosus, and Sjögren's syndrome. Patients with rheumatoid arthritis, systemic lupus erythematosus and Sjögren's syndrome were treated with a combination of weekly high doses of Vitamin D (50,000 IU) and daily doses of 400 mg of hydroxychloroquine.

[2] = tested on: multiple sclerosis in the murine model; settings: Cantorna 1996; Pedersen 2007; cited from earlier work
[3] = Side effects of high-dose Vitamin D in the two ITP patients; type: in vivo, human
Experimental: The patient's platelet count was 215,000/mm^3 six weeks after discontinuing prednisone, indicating a regimen of hydroxychloroquine at a dose of 200 mg twice a day and Vitamin D at a dose of 50,000 IU once a week was sufficient to maintain a stable count. The patient remained stable without the administration of prednisone.
In the above examples, an association between vitamin D deficiency and immune thrombocytopenia in two patients is described. Both patients had SLE and/or Sjögren's overlap with positive serology and profound life-threatening thrombocytopenia, all of which were unaffected by conventional therapies. […] After discontinuation of supplemental Vitamin D in one patient (Example 1), the 25-OH Vitamin D normalized, but the platelet count subsequently plummeted. Resuming vitamin D supplementation restored the platelet count to the previous normal range.

[4] = tested on: IL-6 and IL-2; settings: Muller et al. 1991; cited from earlier work

SMILES: C=C1/C(=C\C=C2/CCC[C@]3(C)[C@@H]([C@H](C)CCCC(C)(C)O)CC[C@@H]23)C[C@@H](O)C[C@@H]1O [Vitamin D, 1a,25-dihydroxy cholecalciferol]
- response to disease modifying anti-rheumatic drugs [1]: enhanced
- development of multiple sclerosis in the murine model [2]: can inhibit the development of multiple sclerosis
- changes in calcium, phosphate, or creatinine levels ([3]; Example 1 patient): no significant changes
- untoward side effects ([3]; both patients): neither patient experienced any untoward side effect
- production of interleukin IL-6 and IL-2 in cell cultures [4]: reduced
